Legend:
[1] = test system: MCF7 breast cancer cells; experiment: ATP-TCA cell viability assay in MCF7 cells and MCF7 cells stably expressing PGRMC1 WT or mutants; format: cell-based, human
[2] = test system: breast cancer exhibiting a positive ER status; details: patients suffering from breast cancer exhibiting a positive ER status; cited from earlier work
[3] = test system: AKT; details: S56A/S180A and Y179F/S180A mutants, H2O2 even at 1 mM
Text: Antibodies employed were specific for phosphorylated AKT (top), for the polypeptide backbone of AKT (middle), or for the HA-tag on the respective exogenously expressed PGRMC1 constructs.

CC/C(=C(\c1ccccc1)c1ccc(OCCN(C)C)cc1)c1ccccc1 [tamoxifen]
resistance of clone to Tamoxifen ([1]; clone S56A/S180A, comparable to wild-type PGRMC1 control or native MCF7 cells): exhibited resistance
susceptibility of clone to Tamoxifen ([1]; clone S180A): highly susceptible
viability of cells ([1]; tamoxifen 10^-8 M, charcoal-treated FCS, 5 days): reduced viability
cases in which treatment is effective [2]: approximately 50%

CC[C@H](C)C(=O)O[C@H]1C[C@@H](C)C=C2C=C[C@H](C)[C@H](CC[C@@H]3C[C@@H](O)CC(=O)O3)[C@H]21 [lovastatin]
viability ([1]; PGRMC1 Y179F/S180A mutant, lower concentrations of lovastatin): improved viability
viability ([1]; all cell lines, high levels of lovastatin, 2 days, charcoal-treated FCS): reduced

estrogen
viability of cells ([1]; estrogen 10^-9 M added to RPMI with charcoal-treated FCS, 5 days): improved
rescue of impaired viability in the presence of tamoxifen ([1]; estrogen 10^-9 M plus tamoxifen 10^-8 M): could not rescue

OO [H2O2, hydrogen peroxide]
phosphorylation of AKT upon H2O2 treatment [3]: neither of the mutants that survived H2O2 treatment in FIG. 10B exhibited phosphorylation of AKT
cell viability ([1]; MCF7 cells, 50 μM H2O2, RPMI with 10% FCS): reduced cell viability

methyl-β-cyclodextrin
cell viability relative to MCF7 control cells ([1]; cells expressing all PGRMC1 mutants except S180A, 5 mM methyl-beta-cyclodextrin, 2 h, charcoal-treated FCS): drastically reduced cell viability

CC(=O)[C@H]1CC[C@H]2[C@@H]3CCC4=CC(=O)CC[C@]4(C)[C@H]3CC[C@]12C [Progesterone, progesterone]
proliferative effect relative to other cells ([1]; PGRMC1-WT cell line, progesterone 10^-7 M, 5 days, charcoal-treated FCS): marginal proliferative effect
viability of cells ([1]; cells generally, progesterone 10^-7 M, charcoal-treated FCS, 5 days): not affected greatly
